Columns and labels:
[1] = biological target: T1, human PI3Kδ enzyme (Homo sapiens, UniProt O00329); experiment: PI3Kδ enzyme inhibitory activity (PI3-Kinase HTRF Assay kit); format: biochemical; details: human PI3Kδ 10 ng/well, ATP 30 μM, PIP2 10 μM, room temperature 30 minutes
T1 construct: purchased Millipore Corporation 14-604
Experimental: 1. PI3Kδ Enzyme Inhibitory Activity
For the experiment, a PI3-Kinase HTRF Assay kit (Millipore Corporation, Catalogue No. 33-016) and a human PI3Kδ enzyme (Millipore Corporation, Catalogue No. 14-604) were used. The measurement method was in accordance with the appended instructions. The overview thereof is as follows.
PI3Kδ (10 ng/well), phosphatidylinositol-4,5-bisphosphate (10 μM), ATP (30 μM), and the test compound were mixed in a 384-well plate (total 20 μL), and incubated at room temperature for 30 minutes. EDTA and biotinylated phosphatidylinositol-3,4,5-triphosphate were added thereto to stop the reaction. Thereafter, a Europium labeled anti-GST antibody, a GST bond GRP1 PH domain, and streptavidin-APC were added thereto, followed by incubation overnight. An HTRF ratio was measured using an HTRF plate reader. The IC50 value of the compound was calculated, taking the inhibition rate without addition of the enzyme as 100% and the inhibition rate without addition of the test compound as 0%, by means of a logistic method.
(§1) In the Table, Ex represents Example Compound No. as described later, PI3Kδ represents the IC50 value (nM) of a PI3Kδ enzyme inhibitory activity, and PI3Kα represents the IC50 value (nM) of a PI3Kα enzyme inhibitory activity.

[2] = biological target: T2, Human PI3Kα (Homo sapiens, UniProt P42336); experiment: PI3Kα enzyme inhibitory activity (Kinase-Glo Plus luminescence); format: biochemical; details: Human PI3Kα 12 ng/well, phosphatidylinositol 0.2 μg/well, 37° C. for 3 hours
T2 construct: purchased Millipore Corporation 14-602
Experimental: 2. PI3Kα Enzyme Inhibitory Activity
Human PI3Kα (12 ng/well, Millipore Corporation, Catalogue No. 14-602), phosphatidylinositol (0.2 μg/well), and the test compound were mixed in a 384-well plate in a reaction buffer (50 mM Hepes, 10 mM NaCl, 10 mM MgCl2, 2 mM EGTA, 2 mM DTT, pH 7.3) (total 10 μl), and incubated at 37° C. for 3 hours. After the reaction, 10 μL of a Kinase-Glo Plus reagent (Promega, Catalogue No. V3772) was added thereto, and a luminescence was measured with a luminometer. The IC50 value of the compound was calculated, taking the inhibition rate without addition of the enzyme as 100% and the inhibition rate without addition of the test compound as 0%, by a logistic method.
as §1

T2 sequence (P42336 whole entry): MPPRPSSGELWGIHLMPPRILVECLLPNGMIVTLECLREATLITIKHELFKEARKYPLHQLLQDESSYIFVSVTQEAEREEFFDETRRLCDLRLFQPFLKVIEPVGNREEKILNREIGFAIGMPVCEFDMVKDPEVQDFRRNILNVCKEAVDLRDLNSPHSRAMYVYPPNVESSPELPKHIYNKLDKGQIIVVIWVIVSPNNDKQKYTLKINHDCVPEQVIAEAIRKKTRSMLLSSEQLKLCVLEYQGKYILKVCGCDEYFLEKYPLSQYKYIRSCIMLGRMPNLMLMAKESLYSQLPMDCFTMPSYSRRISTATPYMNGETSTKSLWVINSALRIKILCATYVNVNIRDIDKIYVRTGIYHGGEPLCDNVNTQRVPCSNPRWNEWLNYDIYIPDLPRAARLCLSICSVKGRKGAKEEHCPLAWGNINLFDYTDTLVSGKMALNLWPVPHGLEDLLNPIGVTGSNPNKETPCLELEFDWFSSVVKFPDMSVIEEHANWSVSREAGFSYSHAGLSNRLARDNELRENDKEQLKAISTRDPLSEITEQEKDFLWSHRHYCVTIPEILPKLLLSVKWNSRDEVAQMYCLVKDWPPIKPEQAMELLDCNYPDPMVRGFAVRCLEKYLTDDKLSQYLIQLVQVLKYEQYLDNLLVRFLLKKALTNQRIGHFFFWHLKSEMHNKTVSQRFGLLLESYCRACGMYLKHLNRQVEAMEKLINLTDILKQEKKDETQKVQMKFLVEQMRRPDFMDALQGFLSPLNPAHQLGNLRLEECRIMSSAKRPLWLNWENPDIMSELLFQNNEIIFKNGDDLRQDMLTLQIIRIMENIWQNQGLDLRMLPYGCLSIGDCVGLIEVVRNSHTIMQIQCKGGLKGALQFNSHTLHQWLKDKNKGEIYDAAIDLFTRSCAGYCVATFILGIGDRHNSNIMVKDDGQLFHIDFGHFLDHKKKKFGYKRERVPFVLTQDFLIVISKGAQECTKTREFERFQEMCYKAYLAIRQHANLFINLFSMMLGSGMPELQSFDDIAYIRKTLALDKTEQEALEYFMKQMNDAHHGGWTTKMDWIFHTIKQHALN
T2 sequence (P27986 whole entry partner): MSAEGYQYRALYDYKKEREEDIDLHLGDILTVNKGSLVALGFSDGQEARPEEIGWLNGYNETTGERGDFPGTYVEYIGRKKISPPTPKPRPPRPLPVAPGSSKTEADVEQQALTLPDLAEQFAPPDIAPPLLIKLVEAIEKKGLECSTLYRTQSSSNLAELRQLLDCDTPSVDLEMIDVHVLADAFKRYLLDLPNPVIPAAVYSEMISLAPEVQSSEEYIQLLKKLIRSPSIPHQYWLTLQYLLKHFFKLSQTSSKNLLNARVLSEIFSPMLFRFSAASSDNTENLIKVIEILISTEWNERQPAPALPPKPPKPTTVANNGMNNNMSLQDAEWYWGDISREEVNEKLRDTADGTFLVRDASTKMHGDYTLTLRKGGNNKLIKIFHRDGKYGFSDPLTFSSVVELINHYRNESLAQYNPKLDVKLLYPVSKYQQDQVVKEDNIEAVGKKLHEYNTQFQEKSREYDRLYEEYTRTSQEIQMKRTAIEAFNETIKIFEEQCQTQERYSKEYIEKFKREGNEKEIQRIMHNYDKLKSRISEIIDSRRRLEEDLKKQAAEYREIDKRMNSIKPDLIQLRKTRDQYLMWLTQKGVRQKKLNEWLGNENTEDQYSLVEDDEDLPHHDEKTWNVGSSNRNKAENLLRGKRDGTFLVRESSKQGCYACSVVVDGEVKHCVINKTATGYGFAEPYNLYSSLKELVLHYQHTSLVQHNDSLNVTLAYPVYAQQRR
T1 sequence (O00329 whole entry): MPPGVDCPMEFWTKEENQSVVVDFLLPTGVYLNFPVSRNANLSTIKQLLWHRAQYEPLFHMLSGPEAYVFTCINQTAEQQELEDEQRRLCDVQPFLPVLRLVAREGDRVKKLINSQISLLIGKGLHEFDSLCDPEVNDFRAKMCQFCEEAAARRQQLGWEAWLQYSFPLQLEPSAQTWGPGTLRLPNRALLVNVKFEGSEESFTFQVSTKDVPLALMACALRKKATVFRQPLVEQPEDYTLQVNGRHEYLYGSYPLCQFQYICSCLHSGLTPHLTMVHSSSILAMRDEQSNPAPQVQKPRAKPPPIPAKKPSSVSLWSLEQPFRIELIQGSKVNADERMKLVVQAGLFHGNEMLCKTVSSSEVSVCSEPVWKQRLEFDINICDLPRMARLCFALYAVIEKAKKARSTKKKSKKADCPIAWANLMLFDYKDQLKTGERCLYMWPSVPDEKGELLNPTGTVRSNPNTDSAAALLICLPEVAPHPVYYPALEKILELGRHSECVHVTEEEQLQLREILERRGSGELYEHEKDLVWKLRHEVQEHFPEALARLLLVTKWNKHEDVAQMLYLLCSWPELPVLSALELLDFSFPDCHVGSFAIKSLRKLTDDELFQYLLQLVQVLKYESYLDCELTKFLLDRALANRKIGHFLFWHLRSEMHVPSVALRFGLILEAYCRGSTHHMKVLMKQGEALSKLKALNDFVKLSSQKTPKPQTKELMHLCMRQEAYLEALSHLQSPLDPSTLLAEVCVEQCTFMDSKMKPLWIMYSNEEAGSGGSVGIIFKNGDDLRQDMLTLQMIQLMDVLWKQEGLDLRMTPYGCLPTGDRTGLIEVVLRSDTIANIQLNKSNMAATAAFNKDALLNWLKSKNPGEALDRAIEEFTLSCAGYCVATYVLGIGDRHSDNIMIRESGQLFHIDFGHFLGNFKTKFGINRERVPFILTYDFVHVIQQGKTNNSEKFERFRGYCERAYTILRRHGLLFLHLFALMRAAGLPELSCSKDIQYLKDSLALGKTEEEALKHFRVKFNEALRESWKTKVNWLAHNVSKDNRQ
T1 sequence (P27986 whole entry partner): as the sequence (P27986 whole entry partner) above

Row | Structure (SMILES) | IC50 [1] [nM] | IC50 [2] [nM]
1 | CNC(=O)N[C@H]1CC[C@H](Nc2nc(N3CCOCC3)nc(-n3c(C(F)F)nc4ccccc43)n2)CC1 [Example 5, 1-[trans-4-({4-[2-(difluoromethyl)-1H-benzimidazol-1-yl]-6-morpholin-4-yl-1,3,5-triazin-2-yl}amino)cyclohexyl]-3-methylurea] | 11 | 210
2 | O=C(NCCN1CCOCC1)N[C@H]1CC[C@H](Nc2nc(N3CCOCC3)nc(-n3c(C(F)F)nc4ccccc43)n2)CC1 [Example 6, 1-[trans-4-({4-[2-(difluoromethyl)-1H-benzimidazol-1-yl]-6-morpholin-4-yl-1,3,5-triazin-2-yl}amino)cyclohexyl]-3-(2-morpholin-4-ylethyl)urea] | 4.6 | 330
3 | FC(F)c1nc2ccccc2n1-c1nc(N[C@H]2CC[C@H](N3CCOCC3)CC2)nc(N2CCOCC2)n1 [Example 10, 4-[2-(difluoromethyl)-1H-benzimidazol-1-yl]-6-morpholin-4-yl-N-(trans-4-morpholin-4-ylcyclohexyl)-1,3,5-triazin-2-amine] | 7.1 | 1500
4 | CC(=O)N(C)[C@H]1CC[C@H](Nc2nc(N3CCOCC3)nc(-n3c(C(F)F)nc4ccccc43)n2)CC1 [Example 14, N-[trans-4-({4-[2-(difluoromethyl)-1H-benzimidazol-1-yl]-6-morpholin-4-yl-1,3,5-triazin-2-yl}amino)cyclohexyl]-N-methylacetamide] | 4.4 | 1400
5 | O=S1(=O)CCCN1[C@H]1CC[C@H](Nc2cc(-n3c(C(F)F)nc4ccccc43)nc(N3CCOCC3)n2)CC1 [Example 18, 6-[2-(difluoromethyl)-1H-benzimidazol-1-yl]-N-[trans-4-(1,1-dioxidoisothiazolin-2-yl)cyclohexyl]-2-morpholin-4-ylpyrimidin-4-amine] | 5 | 2900
6 | N[C@H]1CC[C@H](Nc2nc(N3CCOCC3)nc(-n3c(C(F)F)nc4ccccc43)n2)CC1 [Example 27] | 20 | 990
7 | O=C(N[C@H]1CC[C@H](Nc2nc(N3CCOCC3)nc(-n3c(C(F)F)nc4ccccc43)n2)CC1)C(O)CO (some centres unmarked) [Example 39] | 9.5 | 470
8 | CN(C)CC(=O)N(C)[C@H]1CC[C@H](Nc2nc(N3CCOCC3)nc(-n3c(C(F)F)nc4ccccc43)n2)CC1 [Example 47] | 16 | 900
9 | O=C(CS(=O)(=O)c1ccccc1)N[C@H]1CC[C@H](Nc2nc(N3CCOCC3)cc(-n3c(C(F)F)nc4ccccc43)n2)CC1 [Example 52] | 3.4 | 2700
10 | Cc1ccc(S(=O)(=O)NCC(=O)N[C@H]2CC[C@H](Nc3nc(N4CCOCC4)cc(-n4c(C(F)F)nc5ccccc54)n3)CC2)cc1 [Example 53] | 4.6 | 2700
11 | O=S(=O)(N[C@H]1CC[C@H](Nc2cc(-n3c(C(F)F)nc4ccccc43)nc(N3CCOCC3)n2)CC1)c1ccccc1 [Example 95] | 4.9 | 2500
12 | Oc1ccccc1CN[C@H]1CC[C@H](Nc2nc(N3CCOCC3)nc(-n3c(C(F)F)nc4ccccc43)n2)CC1 [Example 104] | 2.1 | 810
13 | CC(N[C@H]1CC[C@H](Nc2nc(N3CCOCC3)nc(-n3c(C(F)F)nc4ccccc43)n2)CC1)C1CCCCC1 (some centres unmarked) [Example 107] | 8.8 | 
14 | CC(N[C@H]1CC[C@H](Nc2nc(N3CCOCC3)nc(-n3c(C(F)F)nc4ccccc43)n2)CC1)c1ccccc1O (some centres unmarked) [Example 108] | 2.8 | 2200
15 | CN1CCC[C@@H](C(=O)N[C@H]2CC[C@H](Nc3nc(N4CCOCC4)cc(-n4c(C(F)F)nc5ccccc54)n3)CC2)C1 [Example 112] | 4.6 | 1400
16 | O=C(NCc1ccc(F)cc1)N[C@H]1CC[C@H](Nc2nc(N3CCOCC3)nc(-n3c(C(F)F)nc4ccccc43)n2)CC1 [Example 116] | 5.2 | 180
17 | N#Cc1ccc(NC(=O)N[C@H]2CC[C@H](Nc3nc(N4CCOCC4)cc(-n4c(C(F)F)nc5ccccc54)n3)CC2)cc1 [Example 123] | 0.85 | 460
18 | N#Cc1ccc(NC(=O)N[C@H]2CC[C@H](Nc3cc(-n4c(C(F)F)nc5ccccc54)nc(N4CCOCC4)n3)CC2)cc1 [Example 125] | 1.8 | > 3000

Results, then the compound that gave them:

Row | IC50 [1] [nM] | IC50 [2] [nM] | Structure (SMILES)
19 | 3.8 | 1800 | O=C(N[C@H]1CC[C@H](Nc2nc(N3CCOCC3)cc(-n3c(C(F)F)nc4ccccc43)n2)CC1)[C@@H]1CCCN1 [Example 154]
20 | 4.3 | > 3000 | O=C1CCCN1[C@H]1CC[C@H](Nc2cc(-n3c(C(F)F)nc4ccccc43)nc(N3CCOCC3)n2)CC1 [Example 185]
21 | 9.1 |  | O=C(CN1CCCC1)N[C@H]1CC[C@H](Nc2nc(N3CCOCC3)cc(-n3c(C(F)F)nc4ccccc43)n2)CC1 [Example 187]
22 | 4.1 | > 3000 | O=C(CN1CCCCCC1)N[C@H]1CC[C@H](Nc2cc(-n3c(C(F)F)nc4ccccc43)nc(N3CCOCC3)n2)CC1 [Example 190]
23 | 23 | 550 | CC(=O)N[C@H]1CC[C@H](Nc2nc(N3CCOCC3)nc(-n3c(C(F)F)nc4ccccc43)n2)CC1 [Example 193]
24 | 8.6 | 2300 | CN(C)CCC(=O)N[C@H]1CC[C@H](Nc2nc(N3CCOCC3)cc(-n3c(C(F)F)nc4ccccc43)n2)CC1 [Example 208]
25 | 20 | 2800 | O=S1(=O)CCCN1[C@H]1CC[C@H](COc2cc(-n3c(C(F)F)nc4ccccc43)nc(N3CCOCC3)n2)CC1 [Example 209]
26 | 22 | 5100 | CC(C)(C)OC(=O)NC(C)(C)C(=O)N[C@H]1CC[C@H](Nc2nc(N3CCOCC3)cc(-n3c(C(F)F)nc4ccccc43)n2)CC1 [Example 210]
27 | 5.6 | > 3000 | FC(F)c1nc2ccccc2n1-c1cc(OC[C@H]2CC[C@H](N3CCOCC3)CC2)nc(N2CCOCC2)n1 [Example 216]
28 | 10 | 6700 | O=S1(=O)CCN([C@H]2CC[C@H](CNc3cc(-n4c(C(F)F)nc5ccccc54)nc(N4CCOCC4)n3)CC2)CC1 [Example 229]
29 | 8.2 | 1500 | O=S1(=O)CCN([C@H]2CC[C@H](CNc3nc(N4CCOCC4)cc(-n4c(C(F)F)nc5ccccc54)n3)CC2)CC1 [Example 231]
30 | 8.6 | 5500 | CC(F)CN(C)[C@H]1CC[C@H](CNc2nc(N3CCOCC3)cc(-n3c(C(F)F)nc4ccccc43)n2)CC1 (some centres unmarked) [Example 330]
31 | 14 | 1000 | CCN(C(C)CF)[C@H]1CC[C@H](CNc2nc(N3CCOCC3)cc(-n3c(C(F)F)nc4ccccc43)n2)CC1 (some centres unmarked) [Example 344]
32 | 16 | 1600 | CC(F)C(C)N(C)[C@H]1CC[C@H](CNc2nc(N3CCOCC3)cc(-n3c(C(F)F)nc4ccccc43)n2)CC1 (some centres unmarked) [Example 384]
33 | 13 | 2300 | CC(C)(O)CN(CC(C)(C)O)[C@H]1CC[C@H](CNc2nc(N3CCOCC3)cc(-n3c(C(F)F)nc4ccccc43)n2)CC1 [Example 396]
34 | 23 | 2900 | CCOCCN(C)[C@H]1CC[C@H](CNc2nc(N3CCOCC3)cc(-n3c(C(F)F)nc4ccccc43)n2)CC1 [Example 397]
35 | 15 | 3500 | COCCN(CC(C)(C)O)[C@H]1CC[C@H](CNc2nc(N3CCOCC3)cc(-n3c(C(F)F)nc4ccccc43)n2)CC1 [Example 401]
36 | 3.6 | 610 | CCN(CC(C)(C)O)[C@H]1CC[C@H](CNc2nc(N3CCOC[C@H]3C)cc(-n3c(C(F)F)nc4ccccc43)n2)CC1 [Example 402]
37 | 11 | 4200 | C#CCN(CC#C)[C@H]1CC[C@H](CNc2nc(N3CCOCC3)cc(-n3c(C(F)F)nc4ccccc43)n2)CC1 [Example 423]
38 | 8.9 | 1100 | C#CCN(C(C)C(C)(C)O)[C@H]1CC[C@H](CNc2nc(N3CCOCC3)cc(-n3c(C(F)F)nc4ccccc43)n2)CC1 (some centres unmarked) [Example 481]
39 | 15 | 8700 | FC[C@@H]1CCCN1[C@H]1CC[C@@H](COc2cc(-n3c(C(F)F)nc4ccccc43)nc(N3CCOCC3)n2)CC1 [Example 483]
40 | 31 | > 10000 | FC[C@@H]1CCCN1[C@H]1CC[C@@H](CNc2cc(-n3c(C(F)F)nc4ccccc43)nc(N3CCOCC3)n2)CC1 [Example 485]
41 | 11 | 1500 | CCN(C(=O)COC)[C@H]1CC[C@H](CNc2nc(N3CCOCC3)cc(-n3c(C(F)F)nc4ccccc43)n2)CC1 [Example 499]

— patent US20120165309A1, “HETERO RING DERIVATIVE” (Astellas Pharma Inc., priority 2009, published 2012)
